Assays:
Assay in all cases: relative viability (nuclei count vs DMSO), 5 days (fraction); higher = more cells survive
[1] = compound: CC1CC(=O)N(C2=CN=C(N=C2N1C3CCCC3)NC4=C(C=C(C=C4)C(=O)NC5CCN(CC5)C)OC)C [NPK76-II-72-1] + CS(=O)(=O)CCNCc1ccc(-c2ccc3ncnc(Nc4ccc(OCc5cccc(F)c5)c(Cl)c4)c3c2)o1 [Lapatinib] (partner 2 µM)
Outline: (§1)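 Lung cancer cell lines were pin-tool dosed in 1536-well plates on the day after seeding, with either a lone drug or a fixed anchor-drug dose plus five library-drug doses (not always all listed) in √10 steps. Nuclei were counted on 4× images after 5 days. Relative viability is the ratio of treated-well to vehicle-well nuclei counts, with each value a median of duplicate plates.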

BI-2536 + Tozasertib = compound: CC[C@@H]1C(=O)N(C)c2cnc(Nc3ccc(C(=O)NC4CCN(C)CC4)cc3OC)nc2N1C1CCCC1 [BI-2536] + Cc1cc(Nc2cc(N3CCN(C)CC3)nc(Sc3ccc(NC(=O)C4CC4)cc3)n2)n[nH]1 [Tozasertib] (partner 0.1 µM)
Outline: as §1

BI-2536 + Alpelisib = compound: CC[C@@H]1C(=O)N(C)c2cnc(Nc3ccc(C(=O)NC4CCN(C)CC4)cc3OC)nc2N1C1CCCC1 [BI-2536] + Cc1nc(NC(=O)N2CCC[C@H]2C(N)=O)sc1-c1ccnc(C(C)(C)C(F)(F)F)c1 [Alpelisib] (partner 2 µM)
Outline: as §1

BI-2536 + Olaparib = compound: CC[C@@H]1C(=O)N(C)c2cnc(Nc3ccc(C(=O)NC4CCN(C)CC4)cc3OC)nc2N1C1CCCC1 [BI-2536] + O=C(c1cc(Cc2n[nH]c(=O)c3ccccc23)ccc1F)N1CCN(C(=O)C2CC2)CC1 [Olaparib] (partner 8 µM)
Outline: as §1

Cell Line | relative viability ([1]; first compound 0.01 µM) | relative viability ([1]; first compound 0.03162 µM) | relative viability ([1]; first compound 0.1 µM) | relative viability ([1]; first compound 0.3162 µM) | relative viability ([1]; first compound 1 µM) | relative viability (BI-2536 + Tozasertib; first compound 0.01 µM) | relative viability (BI-2536 + Tozasertib; first compound 0.03162 µM) | relative viability (BI-2536 + Tozasertib; first compound 0.1 µM) | relative viability (BI-2536 + Tozasertib; first compound 0.3162 µM) | relative viability (BI-2536 + Tozasertib; first compound 1 µM) | relative viability (BI-2536 + Alpelisib; first compound 0.01 µM) | relative viability (BI-2536 + Alpelisib; first compound 0.03162 µM) | relative viability (BI-2536 + Alpelisib; first compound 0.1 µM) | relative viability (BI-2536 + Alpelisib; first compound 0.3162 µM) | relative viability (BI-2536 + Alpelisib; first compound 1 µM) | relative viability (BI-2536 + Olaparib; first compound 0.01 µM) | relative viability (BI-2536 + Olaparib; first compound 0.03162 µM) | relative viability (BI-2536 + Olaparib; first compound 0.1 µM) | relative viability (BI-2536 + Olaparib; first compound 0.3162 µM) | relative viability (BI-2536 + Olaparib; first compound 1 µM)
NCI-H2228 | 0.88 | 1.04 | 1.13 | 1.15 | 0.874 | 0.285 | 0.195 | 0.187 | 0.139 | 0.11 | 0.899 | 0.373 | 0.193 | 0.211 | 0.202 | 0.596 | 0.553 | 0.141 | 0.118 | 0.123
NCI-H2347 | 0.95 | 1.06 | 0.857 | 0.717 | 1.08 |  | 0.503 | 0.465 | 0.295 | 0.352 | 1.03 | 0.923 | 0.89 | 0.448 | 0.497 | 0.537 | 0.501 | 0.531 | 0.471 | 0.405
NCI-H2405 | 1.13 | 1.11 | 1.09 | 1.04 | 1.09 | 0.73 | 0.566 | 0.381 | 0.296 | 0.33 | 0.665 | 0.408 | 0.374 | 0.132 | 0.365 | 0.855 | 0.547 | 0.325 | 0.281 | 0.416
NCI-H3122 | 1.02 | 1.03 | 0.966 | 1.1 | 1.04 | 0.363 | 0.207 | 0.266 | 0.297 | 0.246 | 0.877 | 0.662 | 0.354 | 0.198 | 0.203 | 0.621 | 0.595 | 0.276 | 0.131 | 0.146
PC-3 [JPC-3] | 0.479 | 0.453 | 0.448 | 0.463 | 0.439 | 0.889 | 0.693 | 0.707 | 0.289 | 0.313 | 1.13 | 0.978 | 0.871 | 0.264 | 0.24 | 1.22 | 0.896 | 0.582 | 0.327 | 0.369

— the supplement of paper PMC10307832
